Test system: Plasmodium falciparum
Test: Antimalarial activity against chloroquine-sensitive Plasmodium falciparum CDC/I/HB-3
Format: functional, organism-based

Row | SMILES | IC50 [µM]
1 | CCC(=O)Oc1c(-c2c(C)cc3c(C(C)C)c(O)c(O)c(C#N)c3c2OC(=O)CC)c(C)cc2c(C(C)C)c(O)c(O)c(C#N)c12 | 46
2 | CC(=O)Oc1c(-c2c(C)cc3c(C(C)C)c(O)c(O)c(C#N)c3c2OC(C)=O)c(C)cc2c(C(C)C)c(O)c(O)c(C#N)c12 | 36
3 | CCCCC(=O)Oc1c(-c2c(C)cc3c(C(C)C)c(O)c(O)c(C#N)c3c2OC(=O)CCCC)c(C)cc2c(C(C)C)c(O)c(O)c(C#N)c12 | 12
4 | CCCC(=O)Oc1c(-c2c(C)cc3c(C(C)C)c(O)c(O)c(C#N)c3c2OC(=O)CCC)c(C)cc2c(C(C)C)c(O)c(O)c(C#N)c12 | 21
5 | Cc1cc2c(C(C)C)c(O)c(O)c(C=O)c2c(O)c1-c1c(C)cc2c(C(C)C)c(O)c(O)c(C=O)c2c1O [GOSSYPOL] | 7

Test system: not listed separately
Test: Compound was tested for the inhibition of LDH from a chloroquine-resistant strain (FCB/NC-1) of Plasmodium falciparum

Row | SMILES | Ki [µM]
6 | CCC(=O)Oc1c(-c2c(C)cc3c(C(C)C)c(O)c(O)c(C#N)c3c2OC(=O)CC)c(C)cc2c(C(C)C)c(O)c(O)c(C#N)c12 | 1.1
7 | CC(=O)Oc1c(-c2c(C)cc3c(C(C)C)c(O)c(O)c(C#N)c3c2OC(C)=O)c(C)cc2c(C(C)C)c(O)c(O)c(C#N)c12 | 0.83
8 | CCCCC(=O)Oc1c(-c2c(C)cc3c(C(C)C)c(O)c(O)c(C#N)c3c2OC(=O)CCCC)c(C)cc2c(C(C)C)c(O)c(O)c(C#N)c12 | 0.33
9 | CCCC(=O)Oc1c(-c2c(C)cc3c(C(C)C)c(O)c(O)c(C#N)c3c2OC(=O)CCC)c(C)cc2c(C(C)C)c(O)c(O)c(C#N)c12 | 0.62

Test system: Plasmodium falciparum
Test: Antimalarial activity against chloroquine-resistant Plasmodium falciparum FCB/NC1
Format: functional, organism-based

Row | SMILES | IC50 [µM]
10 | CCC(=O)Oc1c(-c2c(C)cc3c(C(C)C)c(O)c(O)c(C#N)c3c2OC(=O)CC)c(C)cc2c(C(C)C)c(O)c(O)c(C#N)c12 | 69
11 | CC(=O)Oc1c(-c2c(C)cc3c(C(C)C)c(O)c(O)c(C#N)c3c2OC(C)=O)c(C)cc2c(C(C)C)c(O)c(O)c(C#N)c12 | 76
12 | CCCCC(=O)Oc1c(-c2c(C)cc3c(C(C)C)c(O)c(O)c(C#N)c3c2OC(=O)CCCC)c(C)cc2c(C(C)C)c(O)c(O)c(C#N)c12 | 16
13 | CCCC(=O)Oc1c(-c2c(C)cc3c(C(C)C)c(O)c(O)c(C#N)c3c2OC(=O)CCC)c(C)cc2c(C(C)C)c(O)c(O)c(C#N)c12 | 26
14 | Cc1cc2c(C(C)C)c(O)c(O)c(C=O)c2c(O)c1-c1c(C)cc2c(C(C)C)c(O)c(O)c(C=O)c2c1O [GOSSYPOL] | 13

Reference: ChEMBL document CHEMBL1123447, “Biologically active derivatives of gossypol: synthesis and antimalarial activities of peri-acylated gossylic nitriles” (J Med Chem, 1986)
